Assay results: PubChem BioAssay AID256 (DTP/NCI, 2004)
Values joined by “and” are separate entries in the source; they are usually repeats but may differ in a detail not shown here. Equal entries are not always repeated. Toxic doses and inconclusive results are not listed. The calls were made as follows: active = survival T/C of 150% or more; inactive = T/C below 125% in these data.

Test system: CD2F1 mice, L1210 leukemia ip, survival T/C
Assay: NCI In Vivo Anticancer Drug Screen. Data for tumor model L1210 Leukemia (intraperitoneal) in CD2F1 (CDF1) mice
Conditions: higher = longer survival
In short: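 Tumor-bearing mice (transplanted tumor) were split into treated and vehicle control groups, and the measured endpoint of each treated group was divided by that of its vehicle controls.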

[1] = endpoint: mean survival time, dose: 100.0 mg/kg/injection, schedule: Q04DX002 (ip), vehicle: saline with Tween-80
[2] = endpoint: mean survival time, dose: 100.0 mg/kg/injection, schedule: Q01DX009 (ip), vehicle: saline with Tween-80
[3] = endpoint: mean survival time, dose: 100.0 mg/kg/injection, schedule: Q04DX003 (ip), vehicle: saline with Tween-80
[4] = endpoint: mean survival time, dose: 200.0 mg/kg/injection, schedule: Q01DX009 (ip), vehicle: saline with Tween-80
[5] = endpoint: mean survival time, dose: 200.0 mg/kg/injection, schedule: Q04DX003 (ip), vehicle: saline with Tween-80
[6] = endpoint: mean survival time, dose: 400.0 mg/kg/injection, schedule: Q01DX009 (ip), vehicle: saline with Tween-80
[7] = endpoint: mean survival time, dose: 400.0 mg/kg/injection, schedule: Q04DX003 (ip), vehicle: saline with Tween-80

Measured: T/C

C#C[C@]1(O)CC[C@H]2[C@@H]3CCc4cc(O)ccc4[C@H]3CC[C@@]21C
inactive: endpoint: median survival time, dose: 31.2 mg/kg/injection, schedule: Q01DX009 (ip), vehicle: saline with Tween-80 106 % of control | endpoint: median survival time, dose: 62.5 mg/kg/injection, schedule: Q01DX009 (ip), vehicle: saline with Tween-80 97 % of control | endpoint: median survival time, dose: 125.0 mg/kg/injection, schedule: Q01DX009 (ip), vehicle: saline with Tween-80 97 % of control | endpoint: median survival time, dose: 250.0 mg/kg/injection, schedule: Q01DX009 (ip), vehicle: saline with Tween-80 101 % of control | endpoint: median survival time, dose: 500.0 mg/kg/injection, schedule: Q01DX009 (ip), vehicle: saline with Tween-80 104 % of control

O=C1CN=C(c2ccccn2)c2cc(Br)ccc2N1
inactive: endpoint: mean survival time, dose: 100.0 mg/kg/injection, schedule: Q04DX003 (ip), vehicle: Klucel (hydroxypropylcellulose) (HPC) 95 % of control | endpoint: mean survival time, dose: 119.0 mg/kg/injection, schedule: Q01DX009 (ip), vehicle: Klucel (hydroxypropylcellulose) (HPC) 95 % of control | endpoint: mean survival time, dose: 187.0 mg/kg/injection, schedule: Q01DX009 (ip), vehicle: Klucel (hydroxypropylcellulose) (HPC) 100 % of control | endpoint: mean survival time, dose: 200.0 mg/kg/injection, schedule: Q04DX003 (ip), vehicle: Klucel (hydroxypropylcellulose) (HPC) 104 % of control | endpoint: mean survival time, dose: 266.0 mg/kg/injection, schedule: Q01DX009 (ip), vehicle: Klucel (hydroxypropylcellulose) (HPC) 95 % of control | endpoint: mean survival time, dose: 400.0 mg/kg/injection, schedule: Q01DX009 (ip), vehicle: Klucel (hydroxypropylcellulose) (HPC) 94 % of control | endpoint: mean survival time, dose: 400.0 mg/kg/injection, schedule: Q04DX003 (ip), vehicle: Klucel (hydroxypropylcellulose) (HPC) 104 % of control | endpoint: mean survival time, dose: 600.0 mg/kg/injection, schedule: Q01DX009 (ip), vehicle: Klucel (hydroxypropylcellulose) (HPC) 95 % of control

C=C(Cc1ccccc1)C(=O)O
inactive: endpoint: mean survival time, dose: 25.0 mg/kg/injection, schedule: Q04DX002 (ip), vehicle: saline with Tween-80 92 % of control | endpoint: mean survival time, dose: 50.0 mg/kg/injection, schedule: Q04DX002 (ip), vehicle: saline with Tween-80 92 % of control | [1] 95 % of control

C(=C\c1ccc2ccccc2n1)/c1ccc2c(c1)OCO2
inactive: [2] 96 % of control | [3] 102 % of control | [4] 96 % of control | [5] 102 % of control | [6] 95 % of control | [7] 101 % of control

O=C(/C(=N\Nc1ccc([N+](=O)[O-])cc1)c1ccccc1)c1ccccc1
inactive: endpoint: mean survival time, dose: 12.5 mg/kg/injection, schedule: Q01DX009 (ip), vehicle: saline with Tween-80 96 % of control | endpoint: mean survival time, dose: 25.0 mg/kg/injection, schedule: Q01DX009 (ip), vehicle: saline with Tween-80 88 % of control | endpoint: mean survival time, dose: 50.0 mg/kg/injection, schedule: Q01DX009 (ip), vehicle: saline with Tween-80 88 % of control | [3] 97 % of control | [5] 97 % of control | [7] 101 % of control

COc1ccc(-c2nc(N)nc3c2CN(CCCC(=O)O)C3=O)cc1
inactive: endpoint: mean survival time, dose: 100.0 mg/kg/injection, schedule: Q04DX003 (ip), vehicle: saline 98 % of control | endpoint: mean survival time, dose: 200.0 mg/kg/injection, schedule: Q04DX003 (ip), vehicle: saline 98 % of control | endpoint: mean survival time, dose: 400.0 mg/kg/injection, schedule: Q04DX003 (ip), vehicle: saline 96 % of control

CCCCCCCCCCCCNC(=O)C[N+](C)(C)Cc1ccc2c(c1)CCCC2
inactive: endpoint: mean survival time, dose: 5.0 mg/kg/injection, schedule: Q04DX003 (ip), vehicle: saline with Tween-80 95 % of control | endpoint: mean survival time, dose: 10.0 mg/kg/injection, schedule: Q04DX003 (ip), vehicle: saline with Tween-80 105 % of control

O=c1c(O)c(-c2ccc(O)c(O)c2)oc2cc(O)cc(O)c12
inactive: endpoint: mean survival time, dose: 100.0 mg/kg/injection, schedule: Q01DX001 (ip), vehicle: saline 100 % of control | endpoint: mean survival time, dose: 200.0 mg/kg/injection, schedule: Q01DX001 (ip), vehicle: saline 100 % of control | [4] 90 % of control | endpoint: mean survival time, dose: 400.0 mg/kg/injection, schedule: Q01DX001 (ip), vehicle: saline 100 % of control | [6] 96 % of control | endpoint: mean survival time, dose: 800.0 mg/kg/injection, schedule: Q01DX009 (ip), vehicle: saline with Tween-80 87 % of control

NC(=O)COc1ccc(Br)cc1
inactive: [1] 102 % of control | endpoint: mean survival time, dose: 200.0 mg/kg/injection, schedule: Q04DX002 (ip), vehicle: saline with Tween-80 98 % of control

Nc1ncnc2c1ncn2C1OC(CO)C2NP(=O)(N(CCCl)CCCl)OC21 (configuration not stated)
inactive: endpoint: mean survival time, dose: 15.6 mg/kg/injection, schedule: Q01DX001 (ip), vehicle: distilled water + Tween-80 98 % of control and 101 % of control | endpoint: mean survival time, dose: 31.3 mg/kg/injection, schedule: Q01DX001 (ip), vehicle: distilled water + Tween-80 101 % of control | endpoint: mean survival time, dose: 62.5 mg/kg/injection, schedule: Q01DX001 (ip), vehicle: distilled water + Tween-80 101 % of control

O=C1c2cccc(Oc3ccccc3)c2C(=O)c2cccc(Oc3ccccc3)c21
inactive: [2] 94 % of control | [3] 96 % of control | [4] 89 % of control | [5] 97 % of control | [6] 98 % of control | [7] 94 % of control

Cc1ccc(C(=O)CC(O)(C(F)(F)F)C(F)(F)F)cc1
inactive: endpoint: mean survival time, dose: 100.0 mg/kg/injection, schedule: Q01DX009 (ip), vehicle: other 106 % of control | endpoint: mean survival time, dose: 400.0 mg/kg/injection, schedule: Q01DX009 (ip), vehicle: other 112 % of control

C=CCSc1ncnc2c1c(Br)cn2C1OC(CO)C(O)C1O (configuration not stated)
inactive: endpoint: mean survival time, dose: 75.0 mg/kg/injection, schedule: Q01DX001 (ip), vehicle: saline 101 % of control | endpoint: mean survival time, dose: 150.0 mg/kg/injection, schedule: Q01DX001 (ip), vehicle: saline 107 % of control | endpoint: mean survival time, dose: 300.0 mg/kg/injection, schedule: Q01DX001 (ip), vehicle: saline 106 % of control

COc1ccc(CC(=O)C(C)C(O)(C(F)(F)F)C(F)(F)F)cc1OC (configuration not stated)
inactive: [3] 108 % of control | [5] 102 % of control | [7] 103 % of control

C(#CC[P+](c1ccccc1)(c1ccccc1)c1ccccc1)C[P+](c1ccccc1)(c1ccccc1)c1ccccc1
inactive: endpoint: mean survival time, dose: 0.78 mg/kg/injection, schedule: Q01DX009 (ip), vehicle: Klucel (hydroxypropylcellulose) (HPC) 92 % of control | endpoint: mean survival time, dose: 1.56 mg/kg/injection, schedule: Q01DX009 (ip), vehicle: Klucel (hydroxypropylcellulose) (HPC) 92 % of control | endpoint: mean survival time, dose: 3.12 mg/kg/injection, schedule: Q01DX009 (ip), vehicle: Klucel (hydroxypropylcellulose) (HPC) 90 % of control | endpoint: mean survival time, dose: 6.25 mg/kg/injection, schedule: Q01DX009 (ip), vehicle: Klucel (hydroxypropylcellulose) (HPC) 101 % of control | endpoint: mean survival time, dose: 12.5 mg/kg/injection, schedule: Q01DX009 (ip), vehicle: Klucel (hydroxypropylcellulose) (HPC) 93 % of control and 107 % of control

COc1ccc2nc3cc(Cl)ccc3c(NCCC[N+](C)(C)CCCCCCCCCC[N+](C)(C)CCCNc3c4ccc(Cl)cc4nc4ccc(OC)cc34)c2c1
inactive: endpoint: mean survival time, dose: 6.25 mg/kg/injection, schedule: Q01DX009 (ip), vehicle: saline with Tween-80 105 % of control

CC(=O)OCC(=O)[C@@]1(O)CC[C@H]2[C@@H]3CCC4=CC(=O)C=C[C@]4(C)[C@@]3(F)[C@@H](O)C[C@@]21C
inactive: endpoint: mean survival time, dose: 12.5 mg/kg/injection, schedule: Q04DX003 (ip), vehicle: saline 104 % of control | endpoint: mean survival time, dose: 25.0 mg/kg/injection, schedule: Q04DX003 (ip), vehicle: saline 104 % of control | endpoint: mean survival time, dose: 50.0 mg/kg/injection, schedule: Q04DX003 (ip), vehicle: saline 107 % of control
